For the experiment, the target named is T1, recombinant human GR (Homo sapiens, UniProt P04150).
T1 construct: purchased Panvera/Invitrogen P2812 (kit P2893)
T1 sequence (P04150 1-777): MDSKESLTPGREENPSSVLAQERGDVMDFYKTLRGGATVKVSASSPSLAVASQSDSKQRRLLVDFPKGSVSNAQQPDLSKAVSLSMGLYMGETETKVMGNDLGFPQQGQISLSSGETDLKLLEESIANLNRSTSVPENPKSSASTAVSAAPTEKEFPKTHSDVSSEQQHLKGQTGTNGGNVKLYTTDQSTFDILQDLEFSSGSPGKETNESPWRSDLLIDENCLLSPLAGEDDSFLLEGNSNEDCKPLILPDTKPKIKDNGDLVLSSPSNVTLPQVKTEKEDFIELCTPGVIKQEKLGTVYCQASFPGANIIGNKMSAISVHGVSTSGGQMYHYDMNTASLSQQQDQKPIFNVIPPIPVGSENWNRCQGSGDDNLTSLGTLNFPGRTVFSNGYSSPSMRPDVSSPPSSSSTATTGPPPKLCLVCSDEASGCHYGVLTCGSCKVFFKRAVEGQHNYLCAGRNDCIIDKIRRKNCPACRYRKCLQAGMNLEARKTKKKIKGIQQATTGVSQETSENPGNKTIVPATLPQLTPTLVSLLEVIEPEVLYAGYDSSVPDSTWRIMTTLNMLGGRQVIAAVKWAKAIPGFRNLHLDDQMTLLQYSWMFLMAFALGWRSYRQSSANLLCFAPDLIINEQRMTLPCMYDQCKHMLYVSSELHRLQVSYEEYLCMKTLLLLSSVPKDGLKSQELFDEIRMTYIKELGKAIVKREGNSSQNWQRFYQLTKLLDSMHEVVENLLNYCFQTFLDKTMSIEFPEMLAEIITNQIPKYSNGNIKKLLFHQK
The experiment can be described thus: Human Glucocorticoid Receptor (GR) Assay (fluorescence polarization competition, Panvera/Invitrogen kit). Conditions: GS Red Fluoromone tracer, 2 hours at room temperature, 100% control 10 μM Dexamethasone, read-out: Inhibition of GR binding, IC50. The procedure:
Human Glucocorticoid Receptor (GR) Assay The assay is based on a commercial kit from Panvera/Invitrogen (Part number P2893). The assay technology is fluorescence polarization. The kit utilises recombinant human GR (Panvera, Part number P2812), a Fluoromone™ labelled tracer (GS Red, Panvera, Part number P2894) and a Stabilizing Peptide 10× (Panvera, Part number P2815). The GR and Stabilizing Peptide reagents are stored at −70° C. while the GS Red is stored at −20° C. Also included in the kit are 1M DTT (Panvera, Part number P2325, stored at −20° C.) and GR Screening buffer 10× (Panvera, Part number P2814, stored at −70° C. initially but once thawed stored at room temperature). Avoid repeated freeze/thaws for all reagents. The GR Screening buffer 10× comprises 100 mM potassium phosphate, 200 mM sodium molybdate, 1 mM EDTA and 20% DMSO. Test compounds (1 μL) and controls (1 μL) in 100% DMSO were added to black is polystyrene 384-well plates (Greiner low volume black flat-bottom, part number 784076). 0% control was 100% DMSO and 100% control was 10 μM Dexamethasone. Background solution (8 μL; assay buffer 10×, Stabilizing Peptide, DTT and ice cold MQ water) was added to the background wells. GS Red solution (7 μL; assay buffer 10×, Stabilizing Peptide, DTT, GS Red and ice cold water) was added to all wells except background wells. GR solution (7 μL; assay buffer 10×, Stabilizing Peptide, DTT, GR and ice cold water) was added to all wells. The plate was sealed and incubated in a dark at room temperature for 2 hours. The plate was read in an Analyst plate reader (LJL Biosystems/Molecular Devices Corporation) or other similar plate reader capable of recording fluorescence polarization (excitation wavelength 530 nm, emission wavelength 590 nm and a dichroic mirror at 561 nm).
For orientation: Polarisation of emitted light reports the rotation of a fluorescent probe.
Turning to `CC12Cc3cnn(-c4ccc(F)nc4)c3C=C1CC[C@@H]1C2[C@@H](O)C[C@@]2(C)[C@H]1CC[C@]2(OC(=O)C1CC1)C(=O)OCC#N` (stereo in doubt) [Example 20, (1R,3aS,3bS,10aS,10bR,11S,12aS)-1-{[Cyanomethyloxy]carbonyl}-7-(6-fluoropyridin-3-yl)-11-hydroxy-10a,12a-dimethyl-1,2,3,3a,3b,4,5,7,10,10a,10b,11,12,12a-tetradecahydrocyclopenta[5,6]naphtho[1,2-f]indazol-1-yl cyclopropanecarboxylate], the IC50 came to 2.3 nM. For `C[C@H]1C[C@@H]2[C@H]([C@@H](O)C[C@@]3(C)[C@H]2CC[C@]3(OC(=O)c2cocn2)C(=O)SCF)[C@@]2(C)Cc3cnn(-c4ccc(F)nc4)c3C=C12` [Example 9, (1R,3aS,3bS,5S,10aR,10bS,11S,12aS)-1-{[(Fluoromethyl)sulfanyl]carbonyl}-7-(6-fluoropyridin-3-yl)-11-hydroxy-5,10a,12a-trimethyl-1,2,3,3a,3b,4,5,7,10,10a,10b,11,12,12a-tetradecahydrocyclopenta[5,6]naphtho[1,2-f]indazol-1-yl 1,3-oxazole-4-carboxylate], the IC50 came out at 1.5 nM. Under `COCC(=O)O[C@]1(C(=O)SCF)[C@H](C)C[C@H]2[C@@H]3CCC4=Cc5c(cnn5-c5ccc(F)nc5)C[C@]4(C)[C@@]3(F)[C@@H](O)C[C@@]21C` [Example 1, (1R,2R,3aS,3bS,10aS,10bR,11S,12aS)-10b-Fluoro-1-{[(fluoromethyl)sulfanyl]carbonyl}-7-(6-fluoropyridin-3-yl)-11-hydroxy-2,10a,12a-trimethyl-1,2,3,3a,3b,4,5,7,10,10a,10b,11,12,12a-tetradecahydrocyclopenta[5,6]naphtho[1,2-f]indazol-1-yl methoxyacetate] stands 3.5 nM; under `C[C@]12Cc3cnn(-c4ccc(F)nc4)c3C=C1CC[C@H]1[C@@H]3CC[C@](OC(=O)C4CC4)(C(=O)OCC#N)[C@@]3(C)C[C@H](O)[C@@]12F` [Example 19, (1R,3aS,3bS,10aS,10bR,11S,12aS)-1-{[Cyanomethyloxy]carbonyl}-10b-fluoro-7-(6-fluoropyridin-3-yl)-11-hydroxy-10a,12a-dimethyl-1,2,3,3a,3b,4,5,7,10,10a,10b,11,12,12a-tetradecahydrocyclopenta[5,6]naphtho[1,2-f]indazol-1-yl cyclopropanecarboxylate], 1.4 nM; under `COCC(=O)O[C@]1(C(=O)SCF)[C@H](C)C[C@H]2[C@@H]3CCC4=Cc5c(cnn5-c5ccc(F)cc5)C[C@]4(C)[C@@]3(F)[C@@H](O)C[C@@]21C` [Example 6, (1R,2R,3aS,3bS,10aS,10bR,11S,12aS)-10b-Fluoro-1-{[(fluoromethyl)sulfanyl]carbonyl}-7-(4-fluorophenyl)-11-hydroxy-2,10a,12a-trimethyl-1,2,3,3a,3b,4,5,7,10,10a,10b,11,12,12a-tetradecahydrocyclopenta[5,6]naphtho[1,2-f]indazol-1-yl methoxyacetate], 7.8 nM. As for `C[C@@H]1C[C@H]2[C@@H]3CCC4=Cc5c(cnn5-c5ccc(F)cc5)C[C@]4(C)[C@@]3(F)[C@@H](O)C[C@]2(C)[C@@]1(OC(=O)c1cocn1)C(=O)SCF` [Example 28, (1R,2R,3aS,3bS,10aS,10bR,11S,12aS)-10b-Fluoro-1-{[(fluoromethyl)sulfanyl]carbonyl}-7-(4-fluorophenyl)-11-hydroxy-2,10a,12a-trimethyl-1,2,3,3a,3b,4,5,7,10,10a,10b,11,12,12a-tetradecahydrocyclopenta[5,6]naphtho[1,2-f]indazol-1-yl 1,3-oxazole-4-carboxylate], the IC50 amounted to 15 nM.

As to `C[C@H]1C[C@@H]2[C@H]([C@@H](O)C[C@@]3(C)[C@H]2CC[C@]3(OC(=O)c2cocn2)C(=O)SCC#N)[C@@]2(C)Cc3cnn(-c4ccc(F)nc4)c3C=C12` [Example 10, (1R,3aS,3bS,5S,10aR,10bS,11S,12aS)-1-{[(Cyanomethyl)sulfanyl]carbonyl}-7-(6-fluoropyridin-3-yl)-11-hydroxy-5,10a,12a-trimethyl-1,2,3,3a,3b,4,5,7,10,10a,10b,11,12,12a-tetradecahydrocyclopenta[5,6]naphtho[1,2-f]indazol-1-yl 1,3-oxazole-4-carboxylate], the IC50 is 0.89 nM.

By IC50 is commonly meant the midpoint of a concentration-inhibition curve.

(Values after patent US8338587B2, “Compounds” (AstraZeneca AB, priority 2009, dated 2012).)
